Reference: PMC11995724, “Antibiotic target discovery by integrated phenotypic and activity-based profiling of electrophilic fragments” (Cell chemical biology, 2025)

Assay: in vitro
Conditions: human, hek293t cells

Compared with `C=CC(=O)NCCc1nccs1` [3-M20, N-[2-(1,3-thiazol-2-yl)ethyl]prop-2-enamide], `C=CC(=O)NCCc1nc(C)no1` [3-N19, N-[2-(3-methyl-1,2,4-oxadiazol-5-yl)ethyl]prop-2-enamide] is lower in viability at 48 h, 25 µM: 89.6% for the first, 74.2% for the second.

First: C=CC(=O)N1CCC(C(=O)NCc2ccc(-c3n[nH]c(C)n3)cc2)CC1 [3-M21, N-{[4-(5-methyl-1H-1,2,4-triazol-3-yl)phenyl]methyl}-1-(prop-2-enoyl)piperidine-4-carboxamide]
Second: C=CC(=O)N1CCC(C(=O)NCc2ccc(S(N)(=O)=O)cc2)CC1 [3-N10, 1-(prop-2-enoyl)-N-[(4-sulfamoylphenyl)methyl]piperidine-4-carboxamide]
The viability at 48 h, 25 µM of the first is lower: 56.1% for the first, 85.1% for the second.

Going from `C=CC(=O)NC(C)Cc1cccn1C` (stereo not shown) [3-M22, N-[1-(1-methyl-1H-pyrrol-2-yl)propan-2-yl]prop-2-enamide] to `C=CC(=O)N[C@H](C)c1ccccc1OC(C)C` [3-N16, N-[(1R)-1-[2-(propan-2-yloxy)phenyl]ethyl]prop-2-enamide], the viability at 48 h, 25 µM rises from 70.2% to 82.5%.

Going from `C=CC(=O)N1CCC(C(=O)NCc2ccccc2-n2cccn2)CC1` [3-N03, 1-(prop-2-enoyl)-N-{[2-(1H-pyrazol-1-yl)phenyl]methyl}piperidine-4-carboxamide] to `C=CC(=O)N1CCC(C(=O)NCc2cnn(-c3ccccc3)c2)CC1` [3-O14, N-[(1-phenyl-1H-pyrazol-4-yl)methyl]-1-(prop-2-enoyl)piperidine-4-carboxamide], the viability at 48 h, 25 µM rises from 68% to 91.1%.

First: C=CC(=O)N1CCC(c2nnc(C)o2)CC1 [3-N04, 1-[4-(5-methyl-1,3,4-oxadiazol-2-yl)piperidin-1-yl]prop-2-en-1-one]
Second: C=CC(=O)N1CCC(Cn2cnnc2)CC1 [3-P09, 1-{4-[(4H-1,2,4-triazol-4-yl)methyl]piperidin-1-yl}prop-2-en-1-one]
The viability at 48 h, 25 µM of the first is higher: 87.3% for the first, 43.5% for the second.

First: C=CC(=O)N1CCC(C(=O)NCc2ccc(C(N)=O)nc2)CC1 [3-N05, 5-({[1-(prop-2-enoyl)piperidin-4-yl]formamido}methyl)pyridine-2-carboxamide]
Second: C=CC(=O)N1CCC(C(=O)NCc2ccc(OC)cn2)CC1 [3-O19, N-[(5-methoxypyridin-2-yl)methyl]-1-(prop-2-enoyl)piperidine-4-carboxamide]
The viability at 48 h, 25 µM of the first is higher: 59.8% for the first, 59% for the second.

Compared with `C=CC(=O)NCc1ccc(C(=O)N2CCCOC(C)(C)C2)cc1` [3-N06, N-{[4-(2,2-dimethyl-1,4-oxazepane-4-carbonyl)phenyl]methyl}prop-2-enamide], `C=CC(=O)NCc1ccc(C(=O)N2CCCC2)cc1` [3-O05, N-{[4-(pyrrolidine-1-carbonyl)phenyl]methyl}prop-2-enamide] is higher in viability at 48 h, 25 µM: 70.7% for the first, 71.6% for the second.

Going from `C=CC(=O)NCc1nnc2n1CCCCC2` [3-N07, N-({5H,6H,7H,8H,9H-[1,2,4]triazolo[4,3-a]azepin-3-yl}methyl)prop-2-enamide] to `C=CC(=O)NC(c1nnc2n1CCC2)C(C)C` (stereo not shown) [3-P07, N-(2-methyl-1-{5H,6H,7H-pyrrolo[2,1-c][1,2,4]triazol-3-yl}propyl)prop-2-enamide], the viability at 48 h, 25 µM rises from 43.2% to 52.1%.

Going from `C=CC(=O)NCc1n[nH]c(=O)n1C1CC1` [3-N08, N-[(4-cyclopropyl-5-oxo-4,5-dihydro-1H-1,2,4-triazol-3-yl)methyl]prop-2-enamide] to `C=CC(=O)NCc1cn(C2CCCC2)nc1C` [3-N21, N-[(1-cyclopentyl-3-methyl-1H-pyrazol-4-yl)methyl]prop-2-enamide], the viability at 48 h, 25 µM falls from 80% to 55.5%.

Going from `C=CC(=O)N1CCc2c(ncn2-c2ccccc2)C1` [3-N09, 1-{1-phenyl-1H,4H,5H,6H,7H-imidazo[4,5-c]pyridin-5-yl}prop-2-en-1-one] to `C=CC(=O)N1CCC(C(=O)Nc2nncn2C)(c2ccccc2)CC1` [3-O12, N-(4-methyl-4H-1,2,4-triazol-3-yl)-4-phenyl-1-(prop-2-enoyl)piperidine-4-carboxamide], the viability at 48 h, 25 µM rises from 70.1% to 106%.

Going from `C=CC(=O)NC1CCn2cccc2C1` (stereo not shown) [3-N11, N-(5,6,7,8-tetrahydroindolizin-7-yl)prop-2-enamide] to `C=CC(=O)N[C@H]1CCN(S(=O)(=O)c2ccccc2)C1` [3-P11, N-[(3S)-1-(benzenesulfonyl)pyrrolidin-3-yl]prop-2-enamide], the viability at 48 h, 25 µM falls from 71.4% to 54.4%.

Compared with `C=CC(=O)N1CCC(C(=O)NCc2cccc(Cl)c2F)CC1` [3-N12, N-[(3-chloro-2-fluorophenyl)methyl]-1-(prop-2-enoyl)piperidine-4-carboxamide], `C=CC(=O)N1CCC(C(=O)NCc2ncnn2CC)CC1` [3-P03, N-[(1-ethyl-1H-1,2,4-triazol-5-yl)methyl]-1-(prop-2-enoyl)piperidine-4-carboxamide] is lower in viability at 48 h, 25 µM: 87.6% for the first, 71.2% for the second.

First: C=CC(=O)NC(C)c1nnc(-c2ccccc2F)s1 (stereo not shown) [3-N13, N-{1-[5-(2-fluorophenyl)-1,3,4-thiadiazol-2-yl]ethyl}prop-2-enamide]
Second: C=CC(=O)NC(c1ccc(F)cc1)c1ccccn1 (stereo not shown) [3-N14, N-[(4-fluorophenyl)(pyridin-2-yl)methyl]prop-2-enamide]
The viability at 48 h, 25 µM of the first is lower: 76% for the first, 97% for the second.

First: C=CC(=O)NCc1cc(Cl)cc(S(C)(=O)=O)c1 [3-N15, N-[(3-chloro-5-methanesulfonylphenyl)methyl]prop-2-enamide]
Second: C=CC(=O)NCc1cccc(C(C)(F)F)c1 [3-O22, N-{[3-(1,1-difluoroethyl)phenyl]methyl}prop-2-enamide]
The viability at 48 h, 25 µM of the first is lower: 76.8% for the first, 136% for the second.

Going from `C=CC(=O)NCC1CS(=O)(=O)c2ccccc2O1` (stereo not shown) [3-N17, N-[(4,4-dioxo-2,3-dihydro-1,4lambda6-benzoxathiin-2-yl)methyl]prop-2-enamide] to `C=CC(=O)Nc1ccc2c(c1)S(=O)(=O)CC2` [3-O15, N-(1,1-dioxo-2,3-dihydro-1lambda6-benzothiophen-6-yl)prop-2-enamide], the viability at 48 h, 25 µM falls from 79.4% to 63.9%.

Compared with `C=CC(=O)N1Cc2c(C(=O)O)cnn2CC1C` (stereo not shown) [3-N18, 6-methyl-5-(prop-2-enoyl)-4H,5H,6H,7H-pyrazolo[1,5-a]pyrazine-3-carboxylic acid], `C=CC(=O)N1CCOCC1c1noc(C)n1` (stereo not shown) [3-O11, 1-[3-(5-methyl-1,2,4-oxadiazol-3-yl)morpholin-4-yl]prop-2-en-1-one] is lower in viability at 48 h, 25 µM: 87% for the first, 51.5% for the second.

First: C=CC(=O)NCc1nc2cc(F)ccc2o1 [3-N20, N-[(5-fluoro-1,3-benzoxazol-2-yl)methyl]prop-2-enamide]
Second: C=CC(=O)N1CCC(Cc2nc3ccc(F)cc3o2)CC1 [3-O07, 1-{4-[(6-fluoro-1,3-benzoxazol-2-yl)methyl]piperidin-1-yl}prop-2-en-1-one]
The viability at 48 h, 25 µM of the first is higher: 84.7% for the first, 47.3% for the second.

First: C=CC(=O)NCc1ccc(C(=O)NC2CC(=O)N(C)C2)cc1 (stereo not shown) [3-N22, N-(1-methyl-5-oxopyrrolidin-3-yl)-4-[(prop-2-enamido)methyl]benzamide]
Second: C=CC(=O)NCc1ccc(C(=O)N2CCC(C#N)CC2)cc1 [3-P05, N-{[4-(4-cyanopiperidine-1-carbonyl)phenyl]methyl}prop-2-enamide]
The viability at 48 h, 25 µM of the first is higher: 81.2% for the first, 46.3% for the second.

Going from `C=CC(=O)N1CCC(CCO)c2ccccc21` (stereo not shown) [3-O03, 1-[4-(2-hydroxyethyl)-1,2,3,4-tetrahydroquinolin-1-yl]prop-2-en-1-one] to `C=CC(=O)N1CCCCC1c1nc2ccccc2o1` (stereo not shown) [3-O20, 1-[2-(1,3-benzoxazol-2-yl)piperidin-1-yl]prop-2-en-1-one], the viability at 48 h, 25 µM rises from 58.4% to 82.3%.

Compared with `C=CC(=O)N1CCC(C(=O)NC[C@H]2C[C@@H](O)C2)(c2ccccc2)CC1` [3-O04, 4-phenyl-1-(prop-2-enoyl)-N-{[(1s,3s)-3-hydroxycyclobutyl]methyl}piperidine-4-carboxamide], `C=CC(=O)NC1(c2ccccc2)CCOC1` (stereo not shown) [3-P04, N-(3-phenyloxolan-3-yl)prop-2-enamide] is lower in viability at 48 h, 25 µM: 118% for the first, 89.3% for the second.

Compared with `C=CC(=O)Nc1cc(C)c(CC)cc1OC` [3-O06, N-(4-ethyl-2-methoxy-5-methylphenyl)prop-2-enamide], `C=CC(=O)NCc1ccc(C(C)(C)C)[nH]c1=O` [3-P08, N-[(6-tert-butyl-2-oxo-1,2-dihydropyridin-3-yl)methyl]prop-2-enamide] is lower in viability at 48 h, 25 µM: 82% for the first, 76.4% for the second.

Compared with `C=CC(=O)Nc1ccc(C(=O)N2CCC(S(=O)(=O)NC)C2)cc1` (stereo not shown) [3-O08, N-{4-[3-(methylsulfamoyl)pyrrolidine-1-carbonyl]phenyl}prop-2-enamide], `C=CC(=O)N(C)CC(=O)Nc1ccc(N2CCC(O)CC2)cc1` [3-P06, N-({[4-(4-hydroxypiperidin-1-yl)phenyl]carbamoyl}methyl)-N-methylprop-2-enamide] is lower in viability at 48 h, 25 µM: 95.4% for the first, 65.6% for the second.

First: C=CC(=O)N1CCCC2(CCCCO2)C1 (stereo not shown) [3-O09, 1-{1-oxa-8-azaspiro[5.5]undecan-8-yl}prop-2-en-1-one]
Second: C=CC(=O)NC1CCCN(C2CCCCC2)C1=O (stereo not shown) [3-O18, N-(1-cyclohexyl-2-oxopiperidin-3-yl)prop-2-enamide]
The viability at 48 h, 25 µM of the first is lower: 57% for the first, 92.1% for the second.

First: C=CC(=O)N(C)CC(=O)N1CCN(C(=O)C2CCCCC2)CC1 [3-O10, N-[2-(4-cyclohexanecarbonylpiperazin-1-yl)-2-oxoethyl]-N-methylprop-2-enamide]
Second: C=CC(=O)N1CCC(C(=O)NCC(C)c2ncc(C)s2)CC1 (stereo not shown) [3-P10, N-[2-(5-methyl-1,3-thiazol-2-yl)propyl]-1-(prop-2-enoyl)piperidine-4-carboxamide]
The viability at 48 h, 25 µM of the first is higher: 93.8% for the first, 61.4% for the second.

First: C=CC(=O)NCC1(S(=O)(=O)CC)CC1 [3-O13, N-{[1-(ethanesulfonyl)cyclopropyl]methyl}prop-2-enamide]
Second: C=CC(=O)NCCC(=O)N1CC[S+]([O-])C(C)(C)CC1 (stereo not shown) [3-O17, N-[3-(7,7-dimethyl-1-oxo-1lambda4,4-thiazepan-4-yl)-3-oxopropyl]prop-2-enamide]
The viability at 48 h, 25 µM of the first is lower: 48.1% for the first, 58.5% for the second.

First: C=CC(=O)N1CCC(Cc2nccs2)C1 (stereo not shown) [3-O16, 1-{3-[(1,3-thiazol-2-yl)methyl]pyrrolidin-1-yl}prop-2-en-1-one]
Second: C=CC(=O)Nc1cnn(C2CCCC2)c1 [3-O21, N-(1-cyclopentyl-1H-pyrazol-4-yl)prop-2-enamide]
The viability at 48 h, 25 µM of the first is higher: 98.7% for the first, 70.5% for the second.
